Where “and” joins values, the source holds several entries; their conditions need not be identical. Identical values can stand only once.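 Cells were grown in 96-well plates and exposed to each compound for 48 hours at five concentrations; endpoints were interpolated linearly between bracketing concentrations, or set to the highest concentration if not reached. At the GI50, growth is halved. TGI: concentration producing complete growth inhibition.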
How the values were obtained:
Experiment in all cases: NCI-60 cell line screen, 48 h
[1] = system: UACC-257 melanoma
[2] = system: SK-MEL-5 melanoma
[3] = system: NCI-H522 lung
[4] = system: CCRF-CEM leukemia
[5] = system: SK-MEL-28 melanoma
[6] = system: SF-295 CNS
[7] = system: T-47D breast
[8] = system: ACHN renal
[9] = system: OVCAR-8 ovarian
[10] = system: A498 renal
[11] = system: RXF 393 renal
[12] = system: M14 melanoma
[13] = system: SN12C renal
[14] = system: SK-OV-3 ovarian
[15] = system: 786-0 renal
[16] = system: RPMI-8226 leukemia
[17] = system: MCF7 breast
[18] = system: PC-3 prostate
[19] = system: MDA-MB-435
[20] = system: A549 NSCLC
[21] = system: HL-60(TB) leukemia
[22] = system: HCT-116 colon
[23] = system: TK-10 renal
[24] = system: COLO 205 colon
[25] = system: SF-539 CNS
[26] = system: LOX IMVI melanoma
[27] = system: SW-620 colon
[28] = system: NCI-H23 lung
[29] = system: KM12 colon
[30] = system: BT-549 breast
[31] = system: MOLT-4 leukemia
[32] = system: U251 CNS
[33] = system: SNB-75 CNS
[34] = system: MALME-3M melanoma
[35] = system: UACC-62 melanoma
[36] = system: K-562 leukemia
[37] = system: NCI-H460 lung
[38] = system: IGROV1 ovarian
[39] = system: CAKI-1 renal
[40] = system: OVCAR-4 ovarian
[41] = system: HS 578T breast
[42] = system: OVCAR-3 ovarian
[43] = system: HCC-2998 colon
[44] = system: SK-MEL-2 melanoma
[45] = system: SF-268 CNS
[46] = system: HT29 colon
[47] = system: HOP-62 NSCLC
[48] = system: OVCAR-5 ovarian
[49] = system: UO-31 renal
[50] = system: DU-145 prostate
[51] = system: HOP-92 NSCLC
[52] = system: SNB-19 CNS
[53] = system: HCT-15 colon
[54] = system: SR leukemia
[55] = system: NCI/ADR-RES ovarian
[56] = system: MDA-MB-231 breast

CCCCCc1c(C)[nH]c(/C=C2\N=C(c3ccc[nH]3)C=C2Oc2ccc(Cl)cc2)c1C
GI50 [1]: 280 nM and 70.6 nM | TGI [1]: 3000 nM and 2780 nM | GI50 [2]: 27 nM and 23.4 nM | TGI [2]: 76.2 nM and 81.8 nM | GI50 [3]: 45.5 nM and 30.5 nM | TGI [3]: 1020 nM and 1280 nM | GI50 [4]: 39.2 nM and < 10 nM | TGI [4]: > 100000 nM | GI50 [5]: 169 nM and 74.2 nM | TGI [5]: 1530 nM and 943 nM | GI50 [6]: 170 nM and 83.2 nM | TGI [6]: 570 nM and 1100 nM | GI50 [7]: 70.9 nM and 32.9 nM | TGI [7]: 2060 nM and 6010 nM | GI50 [8]: 196 nM and 39.7 nM | TGI [8]: 1220 nM and 2110 nM | GI50 [9]: 160 nM and 29.6 nM | TGI [9]: 1980 nM | GI50 [10]: 134 nM and 33 nM | TGI [10]: 3330 nM and 609 nM | GI50 [11]: 67.8 nM and 123 nM | TGI [11]: 672 nM and 722 nM | GI50 [12]: 78.9 nM and 20.3 nM | GI50 [13]: 112 nM and 54.9 nM | TGI [13]: 1920 nM | GI50 [14]: 308 nM and 277 nM | TGI [14]: 17600 nM | GI50 [15]: 76.3 nM and 46.1 nM | TGI [15]: 326 nM and 512 nM | GI50 [16]: 60.2 nM and 16.3 nM | TGI [16]: 1230 nM and 1570 nM | GI50 [17]: 57.8 nM and 23.8 nM | TGI [17]: 2150 nM and 3570 nM | GI50 [18]: 115 nM and 23.6 nM | TGI [18]: 7220 nM | GI50 [19]: 58.7 nM and 35.2 nM | TGI [19]: 334 nM and 385 nM | GI50 [20]: 75.3 nM and 26.4 nM | TGI [20]: 382 nM and 229 nM | GI50 [21]: 213 nM and 63.7 nM | TGI [21]: 1480 nM and 1010 nM | GI50 [22]: 39.2 nM and 14.7 nM | TGI [22]: 1220 nM and 1180 nM | GI50 [23]: 413 nM and 53.9 nM | TGI [23]: 5450 nM and 921 nM | GI50 [24]: 129 nM and 28.9 nM | TGI [24]: 1770 nM and 1180 nM | GI50 [25]: 125 nM and 40.6 nM | TGI [25]: 992 nM and 474 nM | GI50 [26]: 20.4 nM and < 10 nM | TGI [26]: 46 nM and 47.3 nM | GI50 [27]: 38.7 nM and 22.8 nM | TGI [27]: 2580 nM and 1290 nM | GI50 [28]: 160 nM and 73.9 nM | TGI [28]: 3250 nM and 2620 nM | GI50 [29]: 40 nM and 13.3 nM | TGI [29]: 1500 nM and 614 nM | GI50 [30]: 222 nM and 352 nM | TGI [30]: 19700 nM | GI50 [31]: 64 nM | TGI [31]: 1880 nM | GI50 [32]: 65.8 nM and 19 nM | TGI [32]: 749 nM and 192 nM | GI50 [33]: 112 nM and 37.5 nM | TGI [33]: 553 nM and 431 nM | GI50 [34]: 337 nM and 129 nM | TGI [34]: 1600 nM and 1540 nM | GI50 [35]: 41.8 nM and 29.9 nM | TGI [35]: 163 nM and 88.4 nM | GI50 [36]: 48.5 nM and 36.7 nM | TGI [36]: > 100000 nM | GI50 [37]: 54.5 nM and 24 nM | TGI [37]: 12000 nM | GI50 [38]: 204 nM and 129 nM | TGI [38]: 50900 nM | GI50 [39]: 148 nM and 34.3 nM | TGI [39]: 542 nM and 312 nM | GI50 [40]: 52.7 nM and 22.8 nM | TGI [40]: > 100000 nM | GI50 [41]: 126 nM and 27.1 nM | TGI [41]: 650 nM and 400 nM | GI50 [42]: 107 nM and 34.2 nM | TGI [42]: 516 nM and 450 nM | GI50 [43]: 43.9 nM and 24.1 nM | TGI [43]: 2670 nM and 7350 nM | GI50 [44]: 57.8 nM and 29.3 nM | TGI [44]: 230 nM and 108 nM | GI50 [45]: 76.7 nM and 33.8 nM | TGI [45]: 3180 nM | GI50 [46]: 40.2 nM and 28 nM | TGI [46]: 18300 nM | GI50 [47]: 148 nM and 187 nM | TGI [47]: 14600 nM | GI50 [48]: 142 nM and 38.3 nM | TGI [48]: 4260 nM | GI50 [49]: 142 nM and 59.9 nM | TGI [49]: 320 nM and 222 nM | GI50 [50]: 83.7 nM and 20.1 nM | TGI [50]: 3040 nM and 2910 nM | GI50 [51]: 41.7 nM and 17.6 nM | TGI [51]: 314 nM and 361 nM | GI50 [52]: 268 nM and 173 nM | TGI [52]: 4330 nM | GI50 [53]: 77.9 nM and 28.7 nM | TGI [53]: 1460 nM and 1050 nM | GI50 [54]: 37.2 nM and < 10 nM | TGI [54]: > 100000 nM | GI50 [55]: 377 nM and 387 nM | TGI [55]: 18800 nM | GI50 [56]: 26.9 nM and < 10 nM | TGI [56]: 79.8 nM and 157 nM
